The text below walks through data of ChEMBL document CHEMBL1139197, “Synthesis, structural analysis, and SAR studies of triazine derivatives as potent, selective Tie-2 inhibitors” (Bioorg Med Chem Lett, 2007).

≈ marks a conversion by molar mass, not a printed value.

Series [1] addresses T1, Angiopoietin-1 receptor (Homo sapiens, UniProt Q02763). Briefly: Inhibition of Tie2 after 90 mins by HTRF assay. On the technique in general: In TR-FRET formats the signal depends on donor and acceptor labels being close together.
Series [2] concerns the target T2, Vascular endothelial growth factor receptor 2 (Homo sapiens, UniProt P35968). Briefly: Inhibition of KDR after 90 mins by HTRF assay.
A short description of series [3]: Half life in Sprague-Dawley rat at 2 mg/kg, iv. Type of series: ADME, organism-based. The arrangement: dose 2 mg/kg, route intravenous. As to conditions: in vivo.
For series [4], the target named is T3, Mitogen-activated protein kinase 14 (Homo sapiens, UniProt Q16539). Briefly: Inhibition of p38-alpha by radioactive filtration assay.
Series [5] has as its target Tyrosine-protein kinase Lck (Homo sapiens, UniProt P06239). Briefly: Inhibition of Lck by radioactive filtration assay.
For series [6], the target named is T1, Angiopoietin-1 receptor. Briefly: Inhibition of Tie2 autophosphorylation in EA.hy926 cells after […]. Format: cell-based.
Series [7] deals with Mast/stem cell growth factor receptor Kit (Homo sapiens, UniProt P10721). Briefly: Inhibition of cKit by radioactive filtration assay.
A short description of series [8]: Oral bioavailability in Sprague-Dawley rat at 10 mg/kg, po. Format: ADME, organism-based. The note with it: in vivo.
Series [9] concerns the target Tyrosine-protein kinase JAK2 (Homo sapiens, UniProt O60674). Put plainly: Inhibition of Jak2 by radioactive filtration assay.
Series [10] concerns the target T3, Mitogen-activated protein kinase 14. Briefly: Inhibition of p38-alpha in THP1 cells assessed as TNFalpha levels. Type of series: cell-based, THP-1.
Series [11] in a line: AUC (0 to infinity) in Sprague-Dawley rat at 10 mg/kg, po. Type of series: ADME, organism-based. The note with it: plasma. Set-up: time infinity, dose 10 mg/kg, route oral.
Series [12] has as its target Mitogen-activated protein kinase 10 (Homo sapiens, UniProt P53779). Put plainly: Inhibition of JNK3 by radioactive filtration assay.
Series [13] can be described thus: Mean residence time in Sprague-Dawley rat. Format: ADME, organism-based. The note with it: in vivo.
The nature of series [14]: Clearance in Sprague-Dawley rat at 2 mg/kg, iv. Type of series: ADME, organism-based. Set-up: dose 2 mg/kg, route intravenous. As to conditions: in vivo.
For series [15], the target named is T2, Vascular endothelial growth factor receptor 2. Put plainly: Inhibition of KDR autophosphorylation in EA.hy926 cells after […]. Format: cell-based.
Series [16] is described as follows: Solubility in phosphate buffer at pH 7.1. Format: physicochemical.
Series [17] can be described thus: Solubility in 0.01 N HCl at pH 2.0. Format: physicochemical.
In series [18] the target is Proto-oncogene tyrosine-protein kinase Src (Homo sapiens, UniProt P12931). Briefly: Inhibition of Src by radioactive filtration assay.
A short description of series [19]: Volume of distribution in Sprague-Dawley rat at 2 mg/kg, iv. Type of series: ADME, organism-based. The arrangement: dose 2 mg/kg, route intravenous. As to conditions: in vivo, read-out: Vdss.
For series [20], the target named is Fibroblast growth factor receptor (Homo sapiens, UniProt P22607+P11362+P22455+P21802). Put plainly: Inhibition of FGFR by radioactive filtration assay. Format: protein assay.
Series [21] in a line: Cmax in Sprague-Dawley rat at 10 mg/kg, po. Format: ADME, organism-based. The arrangement: dose 10 mg/kg, route oral. The note with it: in vivo.
In series [22] the target is Vascular endothelial growth factor receptor 2 and tyrosine-protein kinase TIE-2 (KDR and TIE2) (Homo sapiens) (UniProt P35968+Q02763). Briefly: Selectivity for Tie2 over KDR in cell based autophosphorylation assay.
Sequence of Vascular endothelial growth factor receptor 2 and tyrosine-protein kinase TIE-2 (KDR and TIE2) (Homo sapiens) (P35968 whole entry, looked up): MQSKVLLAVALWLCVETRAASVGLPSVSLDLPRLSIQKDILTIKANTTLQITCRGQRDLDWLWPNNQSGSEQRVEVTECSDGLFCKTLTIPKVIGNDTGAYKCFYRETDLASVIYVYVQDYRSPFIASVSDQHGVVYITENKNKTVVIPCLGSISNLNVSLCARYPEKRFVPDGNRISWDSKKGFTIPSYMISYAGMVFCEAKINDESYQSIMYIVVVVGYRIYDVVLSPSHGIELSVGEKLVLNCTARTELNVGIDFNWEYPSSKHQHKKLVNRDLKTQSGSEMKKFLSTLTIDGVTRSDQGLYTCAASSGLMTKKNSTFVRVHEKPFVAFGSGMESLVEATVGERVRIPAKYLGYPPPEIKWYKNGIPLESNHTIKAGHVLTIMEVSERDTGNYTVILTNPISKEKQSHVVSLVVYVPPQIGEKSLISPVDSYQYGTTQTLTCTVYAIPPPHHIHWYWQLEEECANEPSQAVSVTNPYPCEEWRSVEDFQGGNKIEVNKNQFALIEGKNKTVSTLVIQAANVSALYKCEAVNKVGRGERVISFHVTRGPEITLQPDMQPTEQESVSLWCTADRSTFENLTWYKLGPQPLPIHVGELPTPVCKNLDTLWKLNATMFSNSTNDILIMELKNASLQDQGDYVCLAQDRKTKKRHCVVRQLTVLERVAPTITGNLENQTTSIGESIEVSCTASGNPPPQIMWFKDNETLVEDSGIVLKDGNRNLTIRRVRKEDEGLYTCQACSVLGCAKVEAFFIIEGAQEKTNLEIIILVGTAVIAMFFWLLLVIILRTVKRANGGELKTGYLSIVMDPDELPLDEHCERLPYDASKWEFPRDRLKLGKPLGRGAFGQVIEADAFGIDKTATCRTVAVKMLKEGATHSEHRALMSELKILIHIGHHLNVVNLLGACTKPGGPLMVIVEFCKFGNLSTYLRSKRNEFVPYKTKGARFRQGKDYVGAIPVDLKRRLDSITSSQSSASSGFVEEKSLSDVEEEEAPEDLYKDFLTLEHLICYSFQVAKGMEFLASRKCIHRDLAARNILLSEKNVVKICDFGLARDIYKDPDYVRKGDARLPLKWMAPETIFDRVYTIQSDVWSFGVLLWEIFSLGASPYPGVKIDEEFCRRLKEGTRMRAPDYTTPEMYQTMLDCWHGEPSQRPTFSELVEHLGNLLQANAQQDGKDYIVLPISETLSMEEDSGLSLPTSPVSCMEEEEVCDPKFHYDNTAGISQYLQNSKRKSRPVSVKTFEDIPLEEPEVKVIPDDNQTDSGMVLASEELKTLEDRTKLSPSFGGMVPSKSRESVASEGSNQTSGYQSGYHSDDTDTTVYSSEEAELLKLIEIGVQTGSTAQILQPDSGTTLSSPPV
Sequence of Vascular endothelial growth factor receptor 2 and tyrosine-protein kinase TIE-2 (KDR and TIE2) (Homo sapiens) (Q02763 whole entry, looked up): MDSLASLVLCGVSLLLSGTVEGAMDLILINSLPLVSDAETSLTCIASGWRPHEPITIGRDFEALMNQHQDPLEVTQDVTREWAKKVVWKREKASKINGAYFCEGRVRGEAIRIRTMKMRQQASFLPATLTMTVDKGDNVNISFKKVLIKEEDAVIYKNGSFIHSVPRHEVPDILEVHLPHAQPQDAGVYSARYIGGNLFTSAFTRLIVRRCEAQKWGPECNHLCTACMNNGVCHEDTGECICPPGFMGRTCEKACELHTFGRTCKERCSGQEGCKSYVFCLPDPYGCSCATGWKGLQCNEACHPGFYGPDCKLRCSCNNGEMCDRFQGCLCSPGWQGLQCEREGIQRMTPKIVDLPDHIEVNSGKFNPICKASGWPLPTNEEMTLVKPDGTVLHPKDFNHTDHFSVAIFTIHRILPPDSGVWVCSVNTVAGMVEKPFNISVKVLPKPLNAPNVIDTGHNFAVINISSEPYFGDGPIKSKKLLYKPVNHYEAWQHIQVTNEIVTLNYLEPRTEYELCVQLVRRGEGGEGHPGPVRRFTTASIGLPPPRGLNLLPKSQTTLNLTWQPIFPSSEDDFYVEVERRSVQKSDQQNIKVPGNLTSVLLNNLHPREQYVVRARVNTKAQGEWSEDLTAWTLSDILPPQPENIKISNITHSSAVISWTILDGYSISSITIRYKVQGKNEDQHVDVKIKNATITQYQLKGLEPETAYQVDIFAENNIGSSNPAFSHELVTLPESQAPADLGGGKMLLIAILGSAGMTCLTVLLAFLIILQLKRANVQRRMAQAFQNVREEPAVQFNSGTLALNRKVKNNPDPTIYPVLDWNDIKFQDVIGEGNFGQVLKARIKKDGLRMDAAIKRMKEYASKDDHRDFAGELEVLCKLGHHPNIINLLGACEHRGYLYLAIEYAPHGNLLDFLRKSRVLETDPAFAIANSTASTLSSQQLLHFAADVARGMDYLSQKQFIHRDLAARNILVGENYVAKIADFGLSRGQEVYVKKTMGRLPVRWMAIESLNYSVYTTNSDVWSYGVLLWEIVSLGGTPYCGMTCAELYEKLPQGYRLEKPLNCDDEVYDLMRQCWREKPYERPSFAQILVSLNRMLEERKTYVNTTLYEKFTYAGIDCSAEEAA

T2 sequence (P35968 whole entry): as the sequence (P35968 whole entry, looked up) above
T1 sequence (Q02763 whole entry): as the sequence (Q02763 whole entry, looked up) above
T3 sequence (Q16539 whole entry): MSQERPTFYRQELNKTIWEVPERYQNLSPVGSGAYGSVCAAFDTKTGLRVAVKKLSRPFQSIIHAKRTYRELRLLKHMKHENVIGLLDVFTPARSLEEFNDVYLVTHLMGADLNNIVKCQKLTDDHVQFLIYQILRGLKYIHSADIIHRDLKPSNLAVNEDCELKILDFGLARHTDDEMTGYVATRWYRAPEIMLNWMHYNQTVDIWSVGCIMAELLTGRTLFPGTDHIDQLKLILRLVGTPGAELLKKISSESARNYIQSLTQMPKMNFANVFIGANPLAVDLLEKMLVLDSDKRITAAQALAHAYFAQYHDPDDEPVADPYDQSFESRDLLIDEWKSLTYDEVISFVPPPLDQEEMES
Sequence of Tyrosine-protein kinase Lck (P06239 whole entry): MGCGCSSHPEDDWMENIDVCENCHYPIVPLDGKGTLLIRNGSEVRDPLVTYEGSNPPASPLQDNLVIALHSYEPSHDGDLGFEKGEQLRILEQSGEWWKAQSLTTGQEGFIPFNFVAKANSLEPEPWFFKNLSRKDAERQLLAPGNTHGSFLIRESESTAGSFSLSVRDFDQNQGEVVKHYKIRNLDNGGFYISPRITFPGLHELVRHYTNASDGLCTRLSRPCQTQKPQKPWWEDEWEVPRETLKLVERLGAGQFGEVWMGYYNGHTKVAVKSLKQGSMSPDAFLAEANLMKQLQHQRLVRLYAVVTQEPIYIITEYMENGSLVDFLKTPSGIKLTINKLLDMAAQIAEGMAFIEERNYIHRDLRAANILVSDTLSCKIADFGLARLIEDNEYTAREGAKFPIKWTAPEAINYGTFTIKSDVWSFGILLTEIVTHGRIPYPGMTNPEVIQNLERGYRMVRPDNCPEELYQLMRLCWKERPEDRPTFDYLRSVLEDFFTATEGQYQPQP
Sequence of Mitogen-activated protein kinase 10 (P53779 whole entry): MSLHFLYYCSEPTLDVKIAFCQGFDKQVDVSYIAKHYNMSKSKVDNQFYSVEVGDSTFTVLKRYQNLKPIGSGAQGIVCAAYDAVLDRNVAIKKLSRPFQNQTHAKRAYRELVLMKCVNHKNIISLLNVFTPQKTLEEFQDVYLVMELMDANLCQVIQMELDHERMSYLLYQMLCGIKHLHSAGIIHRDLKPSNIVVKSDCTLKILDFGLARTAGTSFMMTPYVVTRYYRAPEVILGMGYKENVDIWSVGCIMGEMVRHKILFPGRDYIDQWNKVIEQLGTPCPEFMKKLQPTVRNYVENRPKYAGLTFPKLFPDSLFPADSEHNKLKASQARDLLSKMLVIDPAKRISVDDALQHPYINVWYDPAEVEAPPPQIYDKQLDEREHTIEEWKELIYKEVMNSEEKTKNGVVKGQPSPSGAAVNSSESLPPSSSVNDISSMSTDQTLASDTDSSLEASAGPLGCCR
Sequence of Mast/stem cell growth factor receptor Kit (P10721 whole entry): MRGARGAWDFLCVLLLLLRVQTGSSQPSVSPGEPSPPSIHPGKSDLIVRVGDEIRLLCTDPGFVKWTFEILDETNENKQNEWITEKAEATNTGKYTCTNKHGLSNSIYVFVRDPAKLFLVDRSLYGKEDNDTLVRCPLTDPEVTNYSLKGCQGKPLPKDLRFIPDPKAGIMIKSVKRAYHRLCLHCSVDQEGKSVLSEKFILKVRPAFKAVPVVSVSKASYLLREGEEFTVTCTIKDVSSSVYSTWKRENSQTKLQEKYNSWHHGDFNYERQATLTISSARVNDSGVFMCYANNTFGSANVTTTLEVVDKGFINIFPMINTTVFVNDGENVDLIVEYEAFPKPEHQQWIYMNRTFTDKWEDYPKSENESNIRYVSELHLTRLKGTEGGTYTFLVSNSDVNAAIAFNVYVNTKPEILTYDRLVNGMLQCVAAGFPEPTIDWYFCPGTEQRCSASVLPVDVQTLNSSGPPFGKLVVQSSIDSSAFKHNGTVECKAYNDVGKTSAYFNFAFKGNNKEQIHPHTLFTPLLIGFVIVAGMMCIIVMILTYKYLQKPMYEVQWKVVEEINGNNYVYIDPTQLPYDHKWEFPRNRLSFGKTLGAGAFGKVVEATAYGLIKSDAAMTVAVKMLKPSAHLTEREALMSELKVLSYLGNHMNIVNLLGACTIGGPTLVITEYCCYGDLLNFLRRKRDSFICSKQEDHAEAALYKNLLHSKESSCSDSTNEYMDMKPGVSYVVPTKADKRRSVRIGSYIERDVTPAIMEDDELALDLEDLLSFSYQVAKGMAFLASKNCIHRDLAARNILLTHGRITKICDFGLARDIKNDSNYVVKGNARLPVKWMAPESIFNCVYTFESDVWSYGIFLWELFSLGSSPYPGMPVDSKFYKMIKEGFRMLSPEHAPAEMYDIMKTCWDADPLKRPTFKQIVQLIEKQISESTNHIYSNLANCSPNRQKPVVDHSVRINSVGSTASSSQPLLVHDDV

One may read the IC50 as the point on the concentration scale where inhibition reaches its midpoint. For `CNc1ncnc(-c2cccnc2Oc2cc(NC(=O)c3cccc(C(C)C)c3)cc(C(F)(F)F)c2)n1`, the results for the IC50 (against Angiopoietin-1 receptor [1]; in series [2]) were 55 nM and 25000 nM, respectively.

As to `CNc1ncnc(-c2cccnc2Oc2cc(NC(=O)c3cccc(C(F)(F)F)c3)ccc2C)n1`, the IC50 against Angiopoietin-1 receptor [1] turned out to be 20 nM; in [2], 309 nM.

Consider `CNc1cc(-c2cccnc2Oc2ccc(Cl)c(NC(=O)c3cccc(C(C)C)c3)c2)ccn1`, for which the IC50 stood at 6 nM against Angiopoietin-1 receptor [1] and 9 nM in series [2].

By half-life is commonly meant how long it takes for the measured level to halve. Read a high half-life as slow decline. As usually defined, the bioavailability is the share of a dose that reaches the circulation, judged against a reference dose that is usually intravenous. Low values mean little systemic uptake, high ones much systemic uptake. What is called AUC(0-inf) is the area under the concentration-time curve extrapolated to infinity. Read a high AUC(0-inf) as more exposure. The term MRT denotes a mean duration of stay, worked out from the concentration-time curve. Broadly, the clearance is the rate of elimination divided by the concentration. A high value points to efficient removal. By solubility is commonly meant the dissolved amount per volume that the medium holds. A lower solubility goes with a poorly soluble substance. One may read the Cmax as the highest concentration seen after dosing. In turn, `CNc1ncnc(-c2cccnc2Oc2cc(NC(=O)c3cccc(OC(F)(F)C(F)F)c3)ccc2C)n1` had a half-life in series [3] of 1.7 h. Further, the IC50 was found to be 47 nM in series [4]; 146 nM in [5]; 33 nM on Angiopoietin-1 receptor [6]; 17800 nM in [7]; 16 nM against Angiopoietin-1 receptor [1]; 1750 nM in series [9]. Further, the IC50 in series [10] worked out at 194 nM; in [2], 1000 nM; in [12], 40000 nM; in series [15] it was 4300 nM; in [18], 2190 nM; in series [20], 5360 nM. Moreover, in series [8], the bioavailability was 4%. The same molecule came in with an area under the curve AUC(0-inf) in series [11] of 509 ng·h/mL. For the same molecule, the MRT in series [13] worked out at 1.5 h. Further, the clearance in [14] is 14.8 mL/min/kg. The results for the solubility in series [16] and in series [17] were 3 µg/mL (≈ 5.68 µM) and 21 µg/mL (≈ 39.7 µM), respectively. Further, the Vd in series [19] was 1.31 L/kg. For the same molecule, in series [21], the Cmax was 119 ng/mL.

As for `CNc1nccc(-c2cccnc2Oc2cc(C(=O)Nc3cccc(C(C)C)c3)ccc2C)n1`, the results for the IC50 (on Angiopoietin-1 receptor [1]; in series [2]) were 13 nM and 38 nM, respectively.

Regarding `CNc1ncnc(-c2cccnc2Oc2cc(NC(=O)c3cccc(C(C)C)c3)ccc2F)n1`, the half-life in [3] is 0.8 h. For the same molecule, the IC50 on Angiopoietin-1 receptor [1] turned out to be 4 nM; in series [2] it was 128 nM. This molecule came in with an MRT in series [13] of 0.5 h. In series [14], this molecule showed a clearance of 18.4 mL/min/kg.

For `CNc1cc(-c2cccnc2Oc2cccc(NC(=O)c3cccc(C(C)C)c3)c2)ccn1`, the IC50 against Angiopoietin-1 receptor [1] came out at 4 nM; in series [2], 18 nM.

With `CNc1ncnc(-c2cccnc2Oc2cc(NC(=O)c3cccc(C(C)C)c3)ccc2C)n1`, the values for the IC50 (on Angiopoietin-1 receptor [6]; on Angiopoietin-1 receptor [1]; in series [2]) were 5 nM, 1 nM and 117 nM, respectively. This molecule showed a clearance in series [14] of 65.7 mL/min/kg.

Regarding `CNc1ncnc(-c2cccnc2Oc2cc(NC(=O)c3cccc(-n4cccc4)c3)ccc2C)n1`, the IC50 on Angiopoietin-1 receptor [6] is 23 nM; against Angiopoietin-1 receptor [1], 17 nM; in series [2] it was 1130 nM; in [15] it was 25000 nM. Further, the Ratio IC50 in series [22] was greater than 1000. This molecule gave a clearance in series [14] of 63.8 mL/min/kg.

For `CNc1nccc(-c2cccnc2Oc2cc(NC(=O)c3cccc(C(C)C)c3)ccc2C)n1`, the IC50 (on Angiopoietin-1 receptor [1]; in series [2]) was 2 nM in each case.

Consider `CNc1cc(-c2cccnc2Oc2cc(C(=O)Nc3cccc(C(C)C)c3)ccc2C)ccn1`, for which the IC50 against Angiopoietin-1 receptor [1] was determined as 3 nM; in [2], 5 nM.

`CNc1cc(-c2cccnc2Oc2cc(NC(=O)c3cccc(OC(F)(F)C(F)F)c3)ccc2C)ccn1`: the IC50 amounted to 13 nM against Angiopoietin-1 receptor [6], 9 nM against Angiopoietin-1 receptor [1], 233 nM in [2] and 943 nM in series [15]. The molecule further gave a clearance in series [14] of 60.7 mL/min/kg.

As for `CNc1ncnc(-c2cccnc2Oc2cccc(NC(=O)c3cccc(C(C)C)c3)c2)n1`, the IC50 against Angiopoietin-1 receptor [6] is 85 nM; against Angiopoietin-1 receptor [1] it was 6 nM; in series [2] it was 456 nM. The molecule also showed a clearance in series [14] of 73.7 mL/min/kg.

As for `Cc1ccc(NC(=O)c2cccc(C(F)(F)F)c2)cc1Nc1ncccc1-c1ccncn1`, in [2], half-maximal inhibition (IC50) required 61 nM.

With `CNc1cc(-c2cccnc2Oc2cc(NC(=O)c3cccc(C(C)C)c3)ccc2C)ccn1`, the values for the IC50 (against Angiopoietin-1 receptor [6]; against Angiopoietin-1 receptor [1]; in series [2]) were 11 nM, 1 nM and 18 nM, respectively. In addition, the clearance in series [14] was 54.3 mL/min/kg.

In the case of `CNc1ncnc(-c2cccnc2Oc2cc(NC(=O)c3cccc(OC(F)(F)F)c3)ccc2C)n1`, the IC50 amounted to 15 nM against Angiopoietin-1 receptor [6], 8 nM against Angiopoietin-1 receptor [1], 442 nM in series [2] and 540 nM in series [15]. Further, in series [14], the clearance is 83 mL/min/kg.

For the molecule `CNc1ncnc(-c2cccnc2Oc2cc(C(=O)Nc3cccc(C(C)C)c3)ccc2C)n1`, the IC50 is 1 nM on Angiopoietin-1 receptor [1] and 20 nM in series [2].
